# Where “and” joins values, the source holds several entries; their conditions need not be identical. Identical values can stand only once. Entries after “also recorded” stand apart in the source; their conditions may differ. Like-named read-outs stand apart in the source and are kept apart here.
# Columns and labels:
# [1] = test system: HCC (hepato cellular carcinoma); experiment: Transition of AFP (tumor marker) values in GM-administered HCC patients; type: in vivo; conditions: for Average AFP value: GM-administered HCC group with abnormal AFP values; for Effect on AFP values (in words): GM-administered HCC patients, 100-300 mg intravenous drip infusion
# Source text: (§1) AFP (Alpha-fetoprotein) and PIVKA-II (isomer of prothrombin) were used as tumor markers of HCC. […] In general, it is often difficult to determine the shrinkage of cancer lesions by CT scanning or echo imaging immediately after conducting TAE, therefore these markers are used to determine the effects. In Japan, the conventional Alpha-feto Riabeads method has been replaced by the Chemilumi ACS-AFP method since May 2004. The former is a radiation immunoassay whose standard value is ≦20. Meanwhile, the latter is a chemiluminescence immunoassay whose standard value is ≦10.
# HCC patients and AFP-positive (precancerous lesions or regenerating hepatocytes) patients without HCC observed on the images ([…] as “GM”) dissolved in 150-300 ml of physiological saline or of 5% glucose by intravenous drip infusion. GM is originally a drug applicable to chronic pancreatitis, acute pancreatitis, and DIC (disseminated intravascular coagulation), however, informed consent was obtained before the administration. And in allergy cases, the starting dose was 75-100 mg and increased. The nonadministered group is GM-nonadministered HCC cases.
# In general, AFP and PIVKA-II values are considered to represent cancer viability in hepato cellular carcinoma cases. GM is considered to suppress the viability, since GM suppresses AFP and PIVKA-II values. […]
# As described above, GM administration after TAE was conducted 10 days after TAE was completed. And GM was considered effective if suppression was observed 4 months after TAE was completed.
# [2] = test system: HCC (hepato cellular carcinoma); experiment: Transition of PIVKA-II (tumor marker) values in GM-administered HCC patients; type: in vivo
# Source text: as §1
# HCC patients and AFP-positive (precancerous lesions or regenerating hepatocytes) patients without HCC observed on the images (on CT or echo exam) were given 100-300 mg of gabexate mesilate (hereinafter referred to as “GM”) dissolved in 150-300 ml of physiological saline or of 5% glucose by intravenous drip infusion. GM is originally a drug applicable to chronic pancreatitis, acute pancreatitis, and DIC (disseminated intravascular coagulation), however, informed consent was obtained before the administration. And in allergy cases, the starting dose was 75-100 mg and increased. The nonadministered group is GM-nonadministered HCC cases.
# In general, AFP and PIVKA-II values are considered to represent cancer viability in hepato cellular carcinoma cases. […]
# [3] = Side effects of GM among 22 cases; type: in vivo, patients; conditions: among 22 cases including pancreatic disease cases
# Source text: Side effects of GM used in the present invention already include shock, anaphylaxis, bleeding tendency, granulocytopenia, fall in blood pressure, elevation of GOT and GPT, facial flushing and the like; among 22 cases including pancreatic disease cases, shock: 0 case, anaphylaxis: 3 cases, bleeding tendency: 0 case, slight granulocytopenia: 22 cases, significant fall in blood pressure: 0 case, elevation of GOT and GPT: 2 cases, and withdrawal: 0.
structure (smiles),measurement,setting,value
"CCOC(=O)c1ccc(OC(=O)CCCCCN=C(N)N)cc1.CS(=O)(=O)O [GM, gabexate mesilate]",Maximum AFP value,"[1]; 0 M, GM-administered HCC group",18.9 ng/mL
same,Minimum AFP value,"[1]; 0 M, GM-administered HCC group",6.5
same,Average AFP value,"[1]; 0 M, 7 cases",11.1 ± 4.8 and 11.1
same,AFP value,"[1]; 0 M, individual GM-administered HCC patient, Chemilumi ACS-AFP method",18.9 and 15.5 and 8.1 and 7.2 and 8.5 and 6.5 and 13.0
same,"Increase and decrease in AFP value, Δ 1 M","[1]; 1 M versus 0 M, individual GM-administered HCC patient",−2.7 and −1.3 and 3.6 and 2.4 and 3.3 and 0.3 and −3.4
same,Average difference of AFP from the value at 0M,"[1]; 1 M, GM-administered HCC group",0.3 and 0.3143
same,Maximum AFP value,"[1]; 1 M, GM-administered HCC group",19.2 ng/mL
same,Minimum AFP value,"[1]; 1 M, GM-administered HCC group",5.4
same,Significant difference of AFP versus 0M,"[1]; 1 M, GM-administered HCC group",none
same,Average AFP value,"[1]; 1 M, 7 cases",11.4 ± 5.1 and 11.4
same,AFP value,"[1]; 1 M, individual GM-administered HCC patient, Chemilumi ACS-AFP method",19.2 and 12.1 and 5.4 and 5.9 and 8.9 and 16.3
same,"Increase and decrease in AFP value, Δ 2 M","[1]; 2 M versus 0 M, individual GM-administered HCC patient",−1.4 and 3.1 and −0.3 and 2.2 and 1.5 and −6.8
same,Maximum AFP value,"[1]; 2 M, GM-administered HCC group",20.4 ng/mL
same,Minimum AFP value,"[1]; 2 M, GM-administered HCC group",5.8
same,Significant difference of AFP versus 0M,"[1]; 2 M, GM-administered HCC group",none
same,Average AFP value,"[1]; 2 M, 6 cases",11.3 ± 5.7 and 11.3
same,AFP value,"[1]; 2 M, individual GM-administered HCC patient, Chemilumi ACS-AFP method",20.4 and 8.7 and 5.8 and 11.6 and 6.2 and 15.2
same,"Increase and decrease in AFP value, Δ 3 M","[1]; 3 M versus 0 M, individual GM-administered HCC patient",−3 and −3.2 and 5.1 and 0.2 and 3.7 and 4.1 and −9.4
same,Maximum AFP value,"[1]; 3 M, GM-administered HCC group",23 ng/mL
same,Minimum AFP value,"[1]; 3 M, GM-administered HCC group",4.0
same,Significant difference of AFP versus 0M,"[1]; 3 M, GM-administered HCC group",none
same,Average AFP value,"[1]; 3 M, 7 cases",10.7 ± 7.2 and 10.7
same,AFP value,"[1]; 3 M, individual GM-administered HCC patient, Chemilumi ACS-AFP method",23.0 and 6.1 and 5.1 and 4.0 and 13.6 and 6.7 and 16.7
same,AFP value,"[1]; 3rd case of TABLE 2, 20 mg of GM, when HCC was roughly diagnosed by contrast CT",8-9
same,Current AFP value,"[1]; 4th case of TABLE 2, 200 mg of GM after TAE",around 7
same,Highest AFP value reached,"[1]; 4th case of TABLE 2, GM reduced to 75-100 mg because of allergy, before TAE",up to 70
same,Statistical difference of AFP between each month and 0M (in words),[1]; GM-administered HCC patients of TABLE 2,no significant difference
same,Effect on AFP values (in words),[1],the elevation of AFP values was suppressed; also recorded: elevation of PIVKA-II and AFP values was not observed
same,Effect on AFP values (in words),[1]; listed as gabexate mesilate,"dropped, or their elevation was suppressed; also recorded: suppressed the elevation of AFP values for a prolonged period"
same,Number of times of effective GM administrations after TAE,"[1]; cases of TABLE 2, effective if suppression observed 4 months after TAE",6
same,Current AFP value,"[1]; first case of TABLE 2, person, GM 200-300 mg with repeated TAE",9.0
same,"Number of times of effective GM administrations, single GM administration","[1]; single GM-administered cases including 4 cases with abnormal AFP values of unknown etiology, effective if markers suppressed in one month",7
same,Effect on PIVKA-II values (in words),[2],elevation of PIVKA-II and AFP values was not observed
same,Effect on PIVKA-II values (in words),[2]; listed as gabexate mesilate,"dropped, or their elevation was suppressed"
same,Side effect: anaphylaxis,[3],3 cases
same,Side effect: bleeding tendency,[3],0 case
same,Side effect: elevation of GOT and GPT,[3],2 cases
same,Side effect: shock,[3],0 case
same,Side effect: significant fall in blood pressure,[3],0 case
same,Side effect: slight granulocytopenia,[3],22 cases
same,Withdrawal,[3],0

# From patent US20060293386A1, “Method for treating cancer” (priority 2005, published 2006)
